Patent publication US5334528A (priority 1989, dated 1994)
Where “and” joins values, the source holds several entries; their conditions need not be identical. Identical values can stand only once. Counter-ions that a name gives are not always drawn.

system: monoclonal antibody from hybridoma Hept-2; assay type: binding, mice

In order of falling “% Crossreactivity” value:
1. O=S1OCC2C(CO1)C1(Cl)C(Cl)=C(Cl)C2(Cl)C1(Cl)Cl (stereo not drawn) [β-Endosulfan, beta-endosulfan]  250%
2. O=S1(=O)OCC2C(CO1)C1(Cl)C(Cl)=C(Cl)C2(Cl)C1(Cl)Cl (stereo not shown) [Endosulfansulfate, endosulfan sulfate]  182%
3. O=S1OCC2C(CO1)C1(Cl)C(Cl)=C(Cl)C2(Cl)C1(Cl)Cl (stereo not shown) [Endosulfan (mix), 6,7,8,9,10,10-Hexachloro-1,5,5a,6,9,9a-hexahydro-6,9,-methano-2,4,3-benzo[e]-dioxathiepin-3-oxide]  173%
4. ClC1=C(Cl)C2(Cl)C3C4CC(C5OC45)C3C1(Cl)C2(Cl)Cl [endrin, (1R, 4S, 5R, 8S) 1,2,3,4,10,10-hexachloro-6,7-epoxy-1,4,4a,5,6,7,8,8a-octahydro-exo-5,8,dimethano-naphthalene]  150%
5. ClC1=C(Cl)C2(Cl)C3C(Cl)C=CC3C1(Cl)C2(Cl)Cl (stereo not drawn) [heptachlor, 1,-exo-,4,5,6,7,8,8,-Heptachloro-3a,4,7,7a-tetrahydro-4,7-methanoindene]  100%
6. ClC1=C(Cl)C2(Cl)C3C4C=CC(C4)C3C1(Cl)C2(Cl)Cl (stereo not drawn) [aldrin, 1,2,3,4,10,10-Hexachloro-1,4,4a,5,8,8a hexahydro-1,4-exo, endo-5,8,-dimethanonaphthalene (HHDN)]  100%
7. ClC1=C(Cl)C2(Cl)C3C4OC4C(Cl)C3C1(Cl)C2(Cl)Cl (stereo not shown) [heptachlor epoxide]  100%
8. ClC1=C(Cl)C2(Cl)C3C(Cl)C(Cl)CC3C1(Cl)C2(Cl)Cl (stereo not shown) [chlordane, 2,3,4,5,6,7,8,8-Octachloro-2,3,3a,4,7,7a-hexahydro-4,7-methanoindene]  75%
9. O=S1OCC2C(CO1)C1(Cl)C(Cl)=C(Cl)C2(Cl)C1(Cl)Cl (stereo not drawn) [a-Endosulfan, alpha-endosulfan]  43%
10. ClC1C(Cl)C(Cl)C(Cl)C(Cl)C1Cl (stereo not shown) [Lindand (BHC), 1,2,3,4,5,6-Hexachlorocyclohexane]  7.3%
11. O=C1C2(Cl)C3(Cl)C4(Cl)C(Cl)(Cl)C5(Cl)C3(Cl)C1(Cl)C5(Cl)C24Cl (stereo not shown) [Kepone, Decachloro-octahydro-1,3,4,-metheno-2H-cyclobuta(cd) pentalen-2-one]  5%
12. ClC1=C(Cl)C(Cl)(Cl)C(Cl)=C1Cl [hexa-Cl-cyclopentadiene]  1.6%
13. OCC(Cl)(Cl)Cl [2,2,2-tri-Cl-ethanol]  0.4%
14. ClC(Cl)=C(Cl)C(Cl)=C(Cl)Cl [hexa-Cl-butadiene]  0.4%
15. O=[N+]([O-])c1ccc(O)c([N+](=O)[O-])c1 [2,4-dinitro-phenol]  0.2%
16. O=[N+]([O-])c1cc(Cl)ccc1Cl [2,5-diCl-nitroBz]  0%
17. Oc1c(Cl)c(Cl)c(Cl)c(Cl)c1Cl [penta-Cl-phenol]  0%
18. Clc1ccccc1Cl [1,2-diCl-Bz]  0%
19. O=[N+]([O-])c1ccc(O)cc1 [4-nitro-phenol]  0%
20. Clc1ccc2ccccc2c1 [2-Cl-naphthalene]  0%
21. Cc1ccc(O)c(C)c1 [2,4-DiMe-phenol]  0%
22. Oc1ccccc1 [phenol]  0%
23. Clc1cccc(Cl)c1 [1,3-diCl-Bz]  0%
24. Clc1ccc(Cl)cc1 [1,4-diCl-Bz]  0%
25. O=[N+]([O-])c1cc(Cl)cc(Cl)c1O [2,4-diCl-6-nitrophenol]  0%
26. Oc1c(Cl)cc(Cl)cc1Cl [2,4,6-triCl-phenol]  0%
27. Clc1ccc(Cl)c(Cl)c1 [1,2,4-triCl-Bz]  0%
28. Clc1ccc(C(c2ccc(Cl)cc2)C(Cl)(Cl)Cl)cc1 [DDT]  0%
29. ClC(Cl)(Cl)C(Cl)(Cl)Cl [hexa-Cl-ethane]  0%
30. Oc1cc(Cl)c(Cl)cc1Cl [2,4,5-triCl-phenol]  0%
31. Oc1ccccc1Cl [2-Cl-phenol]  0%
32. Oc1ccc(Cl)cc1Cl [2,4-diCl-phenol]  0%
33. O=[N+]([O-])c1ccccc1O [2-nitro-phenol]  0%
34. O=C(O)COc1ccc(Cl)cc1Cl [2,4-D]  0%
35. Oc1cc(Cl)c(Cl)cc1O [4,5-diCl-catecol]  0%
36. Cc1cc(O)ccc1Cl [4-Cl-3-Me phenol]  0%
37. O=C(O)COc1cc(Cl)c(Cl)cc1Cl [2,4,5-triCl-phenoxyacetic acid]  0%
38. Clc1ccccc1 [Chlorobenzene]  0%

In the case of `ClC1=C(Cl)C2(Cl)C3C(Cl)C(Cl)CC3C1(Cl)C2(Cl)Cl` (stereo not shown) [chlordane, 2,3,4,5,6,7,8,8-Octachloro-2,3,3a,4,7,7a-hexahydro-4,7-methanoindene], the I50 is reported as 1-10 ng/well.
`ClC1=C(Cl)C2(Cl)C3C(Cl)C=CC3C1(Cl)C2(Cl)Cl` (stereo not drawn) [heptachlor, 1,-exo-,4,5,6,7,8,8,-Heptachloro-3a,4,7,7a-tetrahydro-4,7-methanoindene] was tested, and the I50 was 2-4 ng/well and 1-10 ng/well.
`ClC1=C(Cl)C2(Cl)C3C4CC(C5OC45)C3C1(Cl)C2(Cl)Cl` [endrin, (1R, 4S, 5R, 8S) 1,2,3,4,10,10-hexachloro-6,7-epoxy-1,4,4a,5,6,7,8,8a-octahydro-exo-5,8,dimethano-naphthalene] was tested, and the I50 was 1-10 ng/well.
`ClC1=C(Cl)C2(Cl)C3C4C=CC(C4)C3C1(Cl)C2(Cl)Cl` (stereo not drawn) [aldrin, 1,2,3,4,10,10-Hexachloro-1,4,4a,5,8,8a hexahydro-1,4-exo, endo-5,8,-dimethanonaphthalene (HHDN)] was tested, and the I50 was 1-10 ng/well.
For `ClC1=C(Cl)C2(Cl)C3C4OC4C(Cl)C3C1(Cl)C2(Cl)Cl` (stereo not shown) [heptachlor epoxide], the I50 was 1-10 ng/well.
